Results reported in ChEMBL document CHEMBL2434845, “Design, synthesis and efficacy of novel G protein-coupled receptor kinase 2 inhibitors” (Eur J Med Chem, 2013).
The source made the active and inactive calls. The calls are words filed in the database; no cut-off is given here. Peptide text beside a SMILES is read from it.

Experiments:
[1] = target: T1, Beta-adrenergic receptor kinase 1 (Homo sapiens) (UniProt P25098); assay: Inhibition of GRK-2 (unknown origin)-mediated phosphorylation of rhodopsin in bovine-rod outer segment membranes at 1 uM incubated under white light condition for 15 mins measured after 30 mins by autoradiography in presence of [gamma32P]-ATP; format: cell membranes
T1 sequence (whole entry): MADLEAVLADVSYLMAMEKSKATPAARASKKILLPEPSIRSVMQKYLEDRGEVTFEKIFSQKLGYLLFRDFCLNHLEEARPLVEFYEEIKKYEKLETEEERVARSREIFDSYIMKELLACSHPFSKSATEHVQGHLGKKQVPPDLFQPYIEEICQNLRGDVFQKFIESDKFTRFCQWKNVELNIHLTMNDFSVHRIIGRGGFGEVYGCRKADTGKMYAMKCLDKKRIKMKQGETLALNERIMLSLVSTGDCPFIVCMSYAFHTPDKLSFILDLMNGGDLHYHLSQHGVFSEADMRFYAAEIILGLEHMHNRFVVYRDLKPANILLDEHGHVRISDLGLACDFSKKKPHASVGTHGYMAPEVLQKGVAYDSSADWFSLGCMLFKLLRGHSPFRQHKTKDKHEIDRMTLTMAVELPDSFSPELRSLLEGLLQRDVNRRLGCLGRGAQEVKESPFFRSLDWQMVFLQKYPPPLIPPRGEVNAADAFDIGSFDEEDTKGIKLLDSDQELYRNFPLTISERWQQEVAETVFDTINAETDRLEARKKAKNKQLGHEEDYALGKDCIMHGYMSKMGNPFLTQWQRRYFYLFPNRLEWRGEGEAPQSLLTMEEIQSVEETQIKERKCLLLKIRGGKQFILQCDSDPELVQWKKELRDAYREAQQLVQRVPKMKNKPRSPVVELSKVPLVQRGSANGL

[2] = target: G protein-coupled receptor kinase 5 (Homo sapiens) (UniProt P34947); assay: Inhibition of GRK-5 (unknown origin)-mediated phosphorylation of rhodopsin in bovine-rod outer segment membranes incubated under white light condition for 15 mins measured after 30 mins by autoradiography in presence of [gamma32P]-ATP; format: cell membranes; design: concentration or dose not given beside the values
Chain of G protein-coupled receptor kinase 5 (Homo sapiens) (P34947 whole entry, looked up): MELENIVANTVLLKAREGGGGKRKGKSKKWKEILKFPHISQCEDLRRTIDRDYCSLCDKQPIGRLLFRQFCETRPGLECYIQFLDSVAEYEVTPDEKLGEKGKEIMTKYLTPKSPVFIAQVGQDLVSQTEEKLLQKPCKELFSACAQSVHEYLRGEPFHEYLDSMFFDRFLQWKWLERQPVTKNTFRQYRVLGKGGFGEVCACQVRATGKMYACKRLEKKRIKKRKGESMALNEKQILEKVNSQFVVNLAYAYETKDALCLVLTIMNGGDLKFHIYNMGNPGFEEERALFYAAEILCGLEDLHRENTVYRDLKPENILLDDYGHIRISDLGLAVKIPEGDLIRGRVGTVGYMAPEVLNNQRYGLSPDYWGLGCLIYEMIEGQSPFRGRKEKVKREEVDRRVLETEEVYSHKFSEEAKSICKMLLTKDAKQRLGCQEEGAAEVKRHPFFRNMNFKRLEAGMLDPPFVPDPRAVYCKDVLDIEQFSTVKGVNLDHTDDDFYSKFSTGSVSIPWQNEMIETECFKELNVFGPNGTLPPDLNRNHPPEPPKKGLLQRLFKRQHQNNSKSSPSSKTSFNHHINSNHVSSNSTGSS

[3] = target: T1, Beta-adrenergic receptor kinase 1 (Homo sapiens); assay: Inhibition of GRK2 in HEK293 cells overexpressing human beta2 adrenergic receptor assessed as effect on cAMP production at 1 uM after 1 hr by enzyme immunoassay; format: cell-based
[4] = target: T1, Beta-adrenergic receptor kinase 1 (Homo sapiens); assay: Inhibition of GRK2 in HEK293 cells overexpressing human beta2 adrenergic receptor assessed as increase in beta2 adrenergic receptor density at 1 uM after 1 hr by gamma counting analysis in presence of [125I]cyanopindolol; format: cell-based
[5] = target: T1, Beta-adrenergic receptor kinase 1 (Homo sapiens); assay: Inhibition of GRK2 in HEK293 cells overexpressing human beta2 adrenergic receptor assessed as effect on isoproterenol-induced cAMP production at 1 uM preincubated for 1 hr prior to isoproterenol-stimulation measured after 15 mins by enzyme immunoassay; format: cell-based
[6] = target: T1, Beta-adrenergic receptor kinase 1 (Homo sapiens); assay: (§1) Inhibition of GRK-2 (unknown origin)-mediated phosphorylation of rhodopsin in bovine-rod outer segment membranes incubated under white light condition for 15 mins measured after 30 mins by autoradiography in presence of [gamma32P]-ATP; format: cell membranes
[7] = target: T2, Beta-adrenergic receptor kinase 1 (Homo sapiens, UniProt P25098); assay: as §1; format: cell membranes
T2 sequence (P25098 whole entry): T1 sequence (whole entry)

[8] = tested on: HEK293; assay: Cellular uptake in HEK293 cells overexpressing human beta2 adrenergic receptor at 1 uM after 1 hr by confocal microscopic analysis; format: ADME, cell-based; conditions: hek293, 1 h
[9] = tested on: HEK293; assay: Cellular uptake in HEK293 cells overexpressing human beta2 adrenergic receptor at 1 to 10 uM after 1 hr by fluorescence assay; format: ADME, cell-based; conditions: hek293, 1 h

inhibition [1] [%]	inhibition [2] [%]	SMILES	other results
36.3	< 5	CC(C)C[C@@H]1NC(=O)[C@H](CCCCN)NC(=O)[C@H](CC(=O)O)NC(=O)[C@H](Cc2cnc[nH]2)NC(=O)[C@@H](CCCNC(=N)N)NC(=O)[C@H](CCCNC(=N)N)NC(=O)[C@H](CC(C)C)NC1=O	–
49.6	< 5	CC[C@H](C)[C@H](NC(=O)[C@H](CO)NC(=O)[C@H](Cc1cnc[nH]1)NC(=O)[C@@H](CCCNC(=N)N)NC(=O)[C@H](CCCNC(=N)N)NC(=O)[C@H](CC(C)C)NC(=O)[C@H](CC(C)C)NC(=O)CN)C(=O)O	inhibition [3]: Active; inhibition [4]: Active; inhibition [5]: Active; inhibition [6]: Dose-dependent effect
–	–	CC[C@H](C)[C@H](NC(=O)[C@H](CO)NC(=O)[C@H](Cc1cnc[nH]1)NC(=O)[C@@H](CCCN=C(N)N)NC(=O)[C@H](CCCN=C(N)N)NC(=O)[C@H](CC(C)C)NC(=O)[C@H](CC(C)C)NC(=O)CN)C(=O)O	IC50 [7]: 340 nM; Drug uptake [8]: Active; Drug uptake [9]: Active
37.2	< 5	CC[C@H](C)[C@@H]1NC(=O)[C@H](CO)NC(=O)[C@H](Cc2cnc[nH]2)NC(=O)[C@@H](CCCNC(=N)N)NC(=O)[C@H](CCCNC(=N)N)NC(=O)[C@H](CC(C)C)NC(=O)[C@H](CC(C)C)NC(=O)CNC1=O	–
47.2	< 5	CC(C)C[C@@H]1NC(=O)[C@H](CC(C)C)NC(=O)[C@H](CCCCN)NC(=O)[C@H](CC(=O)O)NC(=O)[C@H](Cc2cnc[nH]2)NC(=O)CNC(=O)[C@H](CCCNC(=N)N)NC1=O (cyclo(DKLLRGH))	–
47.8	< 5	CC(C)C[C@@H]1NC(=O)CNC(=O)[C@H](CO)NC(=O)[C@H](Cc2cnc[nH]2)NC(=O)[C@@H](CCCNC(=N)N)NC(=O)[C@H](CCCNC(=N)N)NC(=O)[C@H](CC(C)C)NC1=O	–
47.6	< 5	CC(C)C[C@H](NC(=O)CN)C(=O)N[C@@H](CC(C)C)C(=O)N[C@@H](CCCNC(=N)N)C(=O)N[C@H](CCCNC(=N)N)C(=O)N[C@@H](Cc1cnc[nH]1)C(=O)N[C@@H](CO)C(=O)O	–
